Key:
androgen receptor [1] = target: T1, androgen receptor (Homo sapiens, UniProt P10275); assay: Degradation of androgen receptor through autophagy; format: cell-based; conditions: FIG. 2a to 2c
T1 construct: endogenous in cells
T1 sequence (P10275 1-920): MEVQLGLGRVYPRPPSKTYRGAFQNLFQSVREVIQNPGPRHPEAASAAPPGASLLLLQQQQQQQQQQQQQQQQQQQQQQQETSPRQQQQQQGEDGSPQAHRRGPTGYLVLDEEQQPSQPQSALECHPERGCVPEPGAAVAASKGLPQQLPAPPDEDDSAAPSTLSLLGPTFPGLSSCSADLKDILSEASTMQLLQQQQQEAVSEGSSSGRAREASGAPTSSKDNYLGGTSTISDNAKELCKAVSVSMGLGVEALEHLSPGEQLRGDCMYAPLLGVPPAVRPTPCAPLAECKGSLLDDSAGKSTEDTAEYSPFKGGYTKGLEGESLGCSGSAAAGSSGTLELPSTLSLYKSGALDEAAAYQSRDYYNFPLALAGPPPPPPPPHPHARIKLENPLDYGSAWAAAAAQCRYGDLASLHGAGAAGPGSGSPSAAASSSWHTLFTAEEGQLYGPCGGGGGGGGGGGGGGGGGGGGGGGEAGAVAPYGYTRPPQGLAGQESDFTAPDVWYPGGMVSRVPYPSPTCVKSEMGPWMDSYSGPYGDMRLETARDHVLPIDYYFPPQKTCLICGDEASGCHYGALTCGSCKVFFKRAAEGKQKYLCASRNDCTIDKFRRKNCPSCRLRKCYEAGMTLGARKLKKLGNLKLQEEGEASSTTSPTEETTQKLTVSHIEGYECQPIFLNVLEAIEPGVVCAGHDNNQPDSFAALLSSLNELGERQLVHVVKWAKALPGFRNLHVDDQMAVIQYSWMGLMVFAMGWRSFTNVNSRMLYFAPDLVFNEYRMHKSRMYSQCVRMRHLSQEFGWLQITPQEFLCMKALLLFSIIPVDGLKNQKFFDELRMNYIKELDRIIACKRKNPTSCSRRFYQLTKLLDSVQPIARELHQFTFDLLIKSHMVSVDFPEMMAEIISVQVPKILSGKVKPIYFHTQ
Protocol: (§1) Hereinafter, experimental examples to show the effects of the disclosed compounds are described. Unless otherwise described, the following experiments were conducted with conventional materials and methos well known in the an for measuring a similar function.
Experimental Example 2. Anticancer Efficacy Via Degradation of Androgen Receptor

[2] = system: androgen-responsive and unresponsive cell; assay: Increase of the autophagy flux in androgen-responsive and unresponsive cell; format: cell-based; conditions: FIG. 1; for increase of autophagy at low concentration: 0.01 μM
Protocol: as §1
Experimental Example 1. Increase of the Autophagy Flux in Androgen-Responsive and Unresponsive Cell by AR Inhibitors of the Present Invention

LNCaP xenograft tumors = assay: Growth of LNCaP xenograft tumors in mice; format: in vivo; conditions: FIG. 8a to 8d
Text: Experimental Example 4. […] Inhibition of Tumor Growth

[3] = system: AR-V7-expressing 22Rv1 xenograft; assay: Tumor growth in AR-V7-expressing 22Rv1 xenograft model; format: in vivo; conditions: SCID mice, intraperitoneally 5 times per week, 20 mg/kg; FIG. 10
Protocol: 22Rv1 cells (4×10^6 cells/animal) were injected subcutaneously into 10-week-old male SCID mice to generate xenograft. The mice bearing tumor were randomly divided into vehicle or AUTOTAC treatment groups (4 or 5 mice per group), Compound B was injected via intraperitoneally 5 times per week at a dose of 20 mg/kg body weight, whereas the vehicle group received an equal volume of PBS containing 5% DMSO and 10% solutol. (FIG. 10)

AR target genes = assay: Down-regulation of AR signaling pathway: expression of AR target genes; format: cell-based; conditions: FIG. 4
Protocol: as §1
3. Down-Regulation of AR Signaling Pathway

wild type AR = target: T2, wild type AR (Homo sapiens, UniProt P10275); assay: Degradation of wild type AR in enzalutamide resistant cell; format: cell-based; conditions: FIG. 9a
T2 construct: endogenous in cells
T2 sequence (P10275 1-920): T1 sequence (P10275 1-920)
Text: (§2) Experimental Example 5. Xtandi-AUTOTAC Degrades AR Splice Variant 7, Predictive Biomarker of Metastatic Castration-Resistant Prostate Cancer Degradation of AR Variant (FIG. 9a to FIG. 9d)

[4] = system: AR splice variant 7 (AR-V7); assay: Degradation of AR splice variant 7 in enzalutamide resistant cell; format: cell-based
Text: as §2

androgen receptor [5] = target: T1, androgen receptor; assay: Inactivation of AR: transcriptional activity of androgen receptor; format: cell-based; conditions: by forming aggregation with p62 in the cytosol; FIG. 3
Protocol: as §1

[6] = system: androgen-responsive prostate cancer cell; assay: Cell proliferation / cell cycle of prostate cancer cell; format: cell-based; conditions: blocking the cell cycle in G1 phase; FIG. 7
Protocol: as §1
(§3) Experimental Example 3. Compound B Inhibits Proliferation of Androgen-Responsive Prostate Cancer Cell

[7] = system: androgen-responsive prostate cancer cell; assay: Colony formation of prostate cancer cell; format: cell-based; conditions: FIG. 6
Protocol: as §1, §3

androgen receptor [8] = target: T3, androgen receptor (Homo sapiens, UniProt P10275, T878A); assay: Degradation of androgen receptor in tumor of mice; format: in vivo; conditions: LNCaP xenograft tumor; FIG. 8e
T3 construct: from tissue; host or cells: LNCaP xenograft tumour in mice
T3 sequence (P10275 whole entry T878A): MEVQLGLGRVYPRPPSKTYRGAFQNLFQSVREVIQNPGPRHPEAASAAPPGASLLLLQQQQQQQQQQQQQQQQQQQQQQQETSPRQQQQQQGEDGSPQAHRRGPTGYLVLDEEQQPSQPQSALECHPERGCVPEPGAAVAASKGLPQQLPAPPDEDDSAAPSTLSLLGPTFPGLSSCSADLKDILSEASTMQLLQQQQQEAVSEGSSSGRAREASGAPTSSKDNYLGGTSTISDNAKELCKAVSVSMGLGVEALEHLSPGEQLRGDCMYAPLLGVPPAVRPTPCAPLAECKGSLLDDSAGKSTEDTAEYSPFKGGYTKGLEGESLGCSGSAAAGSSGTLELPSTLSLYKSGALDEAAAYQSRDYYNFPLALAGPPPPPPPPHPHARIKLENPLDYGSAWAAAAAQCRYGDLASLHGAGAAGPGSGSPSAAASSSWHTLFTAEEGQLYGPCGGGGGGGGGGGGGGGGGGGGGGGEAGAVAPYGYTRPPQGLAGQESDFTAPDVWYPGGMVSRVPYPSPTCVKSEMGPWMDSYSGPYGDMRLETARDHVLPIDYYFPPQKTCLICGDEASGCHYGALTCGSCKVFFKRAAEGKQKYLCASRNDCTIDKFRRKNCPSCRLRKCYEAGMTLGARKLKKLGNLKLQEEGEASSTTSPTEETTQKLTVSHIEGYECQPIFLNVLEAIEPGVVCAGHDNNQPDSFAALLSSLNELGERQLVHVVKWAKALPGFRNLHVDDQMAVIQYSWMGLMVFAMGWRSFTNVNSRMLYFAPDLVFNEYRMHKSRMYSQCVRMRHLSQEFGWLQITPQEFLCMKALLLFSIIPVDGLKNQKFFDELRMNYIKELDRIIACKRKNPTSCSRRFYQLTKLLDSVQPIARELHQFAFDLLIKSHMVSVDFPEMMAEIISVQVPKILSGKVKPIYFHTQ
T3 sequence (Q13501 whole entry partner): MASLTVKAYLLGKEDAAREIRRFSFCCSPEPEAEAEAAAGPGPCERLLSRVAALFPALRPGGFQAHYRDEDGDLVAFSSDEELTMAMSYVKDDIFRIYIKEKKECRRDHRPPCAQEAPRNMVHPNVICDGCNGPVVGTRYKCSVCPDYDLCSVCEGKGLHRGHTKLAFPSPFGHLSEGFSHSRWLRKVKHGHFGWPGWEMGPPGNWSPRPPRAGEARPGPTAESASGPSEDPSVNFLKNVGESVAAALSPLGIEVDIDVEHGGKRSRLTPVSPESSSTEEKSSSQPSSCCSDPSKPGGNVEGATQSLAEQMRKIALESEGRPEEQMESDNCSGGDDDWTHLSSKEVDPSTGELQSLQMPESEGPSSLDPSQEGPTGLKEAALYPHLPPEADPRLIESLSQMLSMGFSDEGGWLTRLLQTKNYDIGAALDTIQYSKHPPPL
Text: 2. Degradation of Androgen Receptor

Row | SMILES | degradation of androgen receptor through autophagy (androgen receptor [1]) | increase of autophagy at low concentration [2] | other results
1 | CC1(C)C(=O)N(c2ccc(C#N)c(C(F)(F)F)c2)C(=S)N1c1ccc(C(=O)NCCOCCOCCNC[C@@H](O)COc2ccc(OCc3ccc(F)cc3)c(OCc3ccc(F)cc3)c2)c(F)c1 [Compound A, (R)—N-(2-(2-(2-((3-(3,4-bis((4-fluorobenzyl)oxy)phenoxy)-2-hydroxypropyl)amino)ethoxy)ethoxy)ethyl)-4-(3-(4-cyano-3-(trifluoromethyl)phenyl)-5,5-dimethyl-4-oxo-2-thioxoimidazolidin-1-yl)-2-fluorobenzamide] | efficiently degrade androgen receptor | efficiently increase autophagy | 
2 | CC1(C)C(=O)N(c2ccc(C#N)c(C(F)(F)F)c2)C(=S)N1c1ccc(C(=O)NCCOCCOCCOCCOCCNC[C@@H](O)COc2ccc(OCc3ccc(F)cc3)c(OCc3ccc(F)cc3)c2)c(F)c1 [Compound B, (R)—N-(18-(3,4-bis((4-fluorobenzyl)oxy)phenoxy)-17-hydroxy-3,6,9,12-tetraoxa-15-azaoctadecyl)-4-(3-(4-cyano-3-(trifluoromethyl)phenyl)-5,5-dimethyl-4-oxo-2-thioxoimidazolidin-1-yl)-2-fluorobenzamide] | efficiently degrade androgen receptor | efficiently increase autophagy | tumor growth in Xenograft mouse model (LNCaP xenograft tumors): efficiently inhibits tumor growth; tumor growth in AR-V7-expressing 22Rv1 xenograft model [3]: Inhibits Tumor Growth; expression of AR target genes (AR target genes): down-regulates expression of AR target genes; increase of autophagy at early time point ([2]; 1 h): efficiently increases autophagy; degradation of wild type AR (wild type AR): degrades; degradation of AR-V7 by sequestering with wild type AR ([4]; FIG. 9a to 9d): can degrade AR-V7 by sequestering with wild type AR; degradation of AR-V7 ([4]; enzalutamide resistant cell, FIG. 9a): degrades; transcriptional activity of androgen receptor (androgen receptor [5]): inhibits transcriptional activity of androgen receptor; cell proliferation / cell cycle [6]: inhibits cell proliferation by blocking the cell cycle in G1 phase; colony formation of prostate cancer cell [7]: prevents colony formation; degradation of androgen receptor in tumor of mice (androgen receptor [8]): degrades androgen receptor
3 | CC1(C)C(=O)N(c2ccc(C#N)c(C(F)(F)F)c2)C(=S)N1c1ccc(C(=O)NCCOCCOCCOCCOCCOCCOCCNC[C@@H](O)COc2ccc(OCc3ccc(F)cc3)c(OCc3ccc(F)cc3)c2)c(F)c1 [Compound C, (R)-N-(24-(3,4-bis((4-fluorobenzyl)oxy)phenoxy)-23-hydroxy-3,6,9,12,15,18-hexaoxa-21-azatetracosyl)-4-(3-(4-cyano-3-(trifluoromethyl)phenyl)-5,5-dimethyl-4-oxo-2-thioxoimidazolidin-1-yl)-2-fluorobenzamide] | efficiently degrade androgen receptor | efficiently increase autophagy | 
4 | O[C@H](CNCCOCCOCCOCCOCCN1CCN(c2nc(-n3cc(Br)nc3Br)cs2)CC1)COc1ccc(OCc2ccc(F)cc2)c(OCc2ccc(F)cc2)c1 [Compound D, (R)-18-(3,4-bis((4-fluorobenzyl)oxy)phenoxy)-1-(4-(4-(2,4-dibromo-1H-imidazol-1-yl)thiazol-2-yl)piperazin-1-yl)-3,6,9,12-tetraoxa-15-azaoctadecan-17-ol] | efficiently degrade androgen receptor |  | 
5 | O=C(COCCOCCOCCOCCNC[C@@H](O)COc1ccc(OCc2ccc(F)cc2)c(OCc2ccc(F)cc2)c1)N1CCN(c2nc(-n3cc(Br)nc3Br)cs2)CC1 [Compound E, (R)-18-(3,4-bis((4-fluorobenzyl)oxy)phenoxy)-1-(4-(4-(2,4-dibromo-1H-imidazol-1-yl)thiazol-2-yl)piperazin-1-yl)-17-hydroxy-3,6,9,12-tetraoxa-15-azaoctadecan-1-one] | efficiently degrade androgen receptor |  | 
6 | CC1(C)C(=O)N(c2ccc(C#N)c(C(F)(F)F)c2)C(=S)N1c1ccc(C(=O)NCCOCCOCCOCCOCCNC[C@@H](O)COc2cccc(OCc3ccc(F)cc3)c2)c(F)c1 [Compound F, (R)-4-(3-(4-cyano-3-(trifluoromethyl)phenyl)-5,5-dimethyl-4-oxo-2-thioxoimidazolidin-1-yl)-2-fluoro-N-(18-(3-((4-fluorobenzyl)oxy)phenoxy)-17-hydroxy-3,6,9,12-tetraoxa-15-azaoctadecyl)benzamide] | efficiently degrade androgen receptor |  | 
7 | CC1(C)C(=O)N(c2ccc(C#N)c(C(F)(F)F)c2)C(=S)N1c1ccc(C(=O)NCCCCCCOCCCCCNC[C@@H](O)COc2cccc(OCc3ccc(F)cc3)c2)c(F)c1 [Compound G, (R)-4-(3-(4-cyano-3-(trifluoromethyl)phenyl)-5,5-dimethyl-4-oxo-2-thioxoimidazolidin-1-yl)-2-fluoro-N-(6-((5-((3-(3-((4-fluorobenzyl)oxy)phenoxy)-2-hydroxypropyl)amino)pentyl)oxy)hexyl)benzamide] | efficiently degrade androgen receptor |  | 
8 | CC1(C)C(=O)N(c2ccc(C#N)c(C(F)(F)F)c2)C(=S)N1c1ccc(OCCCCCCCC(=O)NCCOCCOCCNCc2cccc(OCc3ccc(F)cc3)c2)cc1 [Compound H, 8-(4-(3-(4-cyano-3-(trifluoromethyl)phenyl)-5,5-dimethyl-4-oxo-2-thioxoimidazolidin-1-yl)phenoxy)-N-(2-(2-(2-((3-((4-fluorobenzyl)oxy)benzyl)amino)ethoxy)ethoxy)ethyl)octanamide] | efficiently degrade androgen receptor |  | 
9 | CC1(C)C(=O)N(c2ccc(C#N)c(C(F)(F)F)c2)C(=S)N1c1ccc(OCCOCCOCCOCCOCCOCCNCc2cccc(OCc3ccc(F)cc3)c2)cc1 [Compound I, 4-(3-(4-((1-(3-((4-fluorobenzyl)oxy)phenyl)-5,8,11,14,17-pentaoxa-2-azanonadecan-19-yl)oxy)phenyl)-4,4-dimethyl-5-oxo-2-thioxoimidazolidin-1-yl)-2-(trifluoromethyl)benzonitrile] | efficiently degrade androgen receptor |  | 

From patent US20260159485A1, “ANDROGEN RECEPTOR DEGRADERS FOR THE TREATMENT OF CASTRATION-RESISTANT PROSTATE CANCER AND USE THEREOF” (AUTOTAC INC., priority 2021, published 2026)
